Data taken from US11612163B2, “Stabilization of whole blood samples” (The General Hospital Corporation, priority 2014, dated 2023).
Entries after “also recorded” stand apart in the source; their conditions may differ.

Key:
Type in all cases: cell-based, human
neutrophils [1] = test: Apoptosis/necrosis inhibitors as preservatives of isolated neutrophils
Experimental: Evaluation of apoptosis and necrosis inhibitors as neutrophil preservatives. Neutrophils were isolated by negative selection from healthy donor whole blood using the recommended protocol and reagents from the Human Neutrophil Enrichment Kit (StemCell Technologies; Vancouver, British Columbia, Canada). Yield was determined by counting particles from 8-30 μm in diameter using a Coulter Counter Z1 (Beckman Coulter; Brea, Calif.). Neutrophils were stored in IMDM+20% FBS and were either untreated (control) or treated with 1.25 μL/mL DMSO (Sigma-Aldrich; St. Louis, Mo.), 5 μM Q-VD-OPh (Apex Bio; Houston, Tex.), 50 μM Necrostatin-1 (Cayman Chemical; Ann Arbor, Mich.), or 50 μM Boc-D-FMK Apex Bio; Houston, Tex.). Matched samples were processed immediately after isolation and after 24, 48, 72, and 96 hours of storage at 21° C. Samples were stained with R-phycoerythrin-conjugated Annexin V, SYTOX Green, Hoechst 33342 (all Life Technologies; Carlsbad, Calif.), and allophycocyanin-conjugated CD45 (Huntington Valley) and imaged using an ImageStream^X Mk. II Imaging Flow Cytometer (Amnis Corporation; Seattle, Wash.).

neutrophils [2] = test: Neutrophil migration toward fMLP gradient (microfluidic device)
Experimental: To determine whether neutrophils stored under these conditions were still capable of migrating toward an fMLP gradient, we utilized a microfluidic device previously developed for this purpose. Briefly, fMLP, a neutrophil chemoattractant, is added to two outer chambers. The outer chambers are connected to an inner chamber through a series of channels, creating a gradient. The inner chamber was then filled with neutrophils. Freshly isolated neutrophils were immediately evaluated to establish a time 0 migratory response, then the preserved neutrophils were examined after 72 and 96 h ambient storage for comparison.

platelets = test: Platelet activation surface markers by imaging flow cytometry; conditions: dosages 0.01-0.5 ug/mL, 20 min at 4 or 22° C.
Experimental: Platelet inhibitors used include: Tirofiban (Sigma), Eptifibatide (Tocris), Clopidogrel (Sigma), KF38789 (Tocris). In all experimental conditions that involved treatment with platelet inhibitors (e.g., tirofiban, eptifibatide, etc.), these compounds were added to blood samples and mixed by gentle rocking for 10 minutes before the sample was processed for other assays or storage. The addition of EDTA, unless otherwise stated, occurred 15 minutes prior to the assay (i.e., EDTA was not present during sample storage).
Platelet activation and cell viability were determined using the Image Stream Mark II imaging flow cytometer (Amnis Corporation) equipped with a 40× objective and the 405, 488, 642 nm lasers. For the platelet activation panel, 1 μl of whole blood was combined with PBS and fluorescently labeled antibodies as follows; Pacific Blue conjugated CD41 (1:150; clone HIP8; BioLegend), FITC conjugated PAC-1 (1:10; clone PAC-1 (RUO (GMP)); BD Pharmingen), PE conjugated CD62P (1:100; clone AK-4; BD Pharmingen), APC conjugated CD63 (1:10; clone H5C6; Biolegend), PE/Cy7 conjugated CD45 (1:100; clone HI30; Abcam). […]

neutrophil elastase = test: Quantification of neutrophil elastase (NETosis); conditions: fresh whole blood stimulated, positive control for NETs, n=7
Experimental: Blood samples were mixed gently, warmed to 37° C. for four hours for the release of NETs contents into the plasma, and diluted with PBS to a final blood volume fraction of 25% before centrifugation at 2000×g for 5 minutes. The supernatant was then carefully transferred to a new centrifuge tube and stored at −80° C. for further processing. The level of neutrophil elastase was quantified using the Neutrophil Elastase Activity Assay Kit (Cayman Chemical Company) according to manufacturer's protocol, using a SpectraMax M5 spectrometer (Molecular Devices). As a positive control for NETosis, phorbol myristate acetate (100 nM) was added to fresh whole blood prior to incubation.

SMILES: CC(C)[C@H](NC(=O)c1ccc2ccccc2n1)C(=O)N[C@@H](CC(=O)O)C(=O)COc1c(F)cccc1F [Q-VD-OPh, (3S)-5-(2,6-difluorophenoxy)-3-[[(2S)-3-methyl-2-(quinoline-2-carbonylamino)butanoyl]amino]-4-oxopentanoic acid]
- CD45 biomarker expression of neutrophils (neutrophils [1]; 5 μM, 96 h ambient storage): effectively preserved CD45 biomarker expression
- apoptosis inhibition in neutrophils (neutrophils [1]; 5 μM, IMDM+20% FBS, ambient storage up to 96 h): highly effective at apoptosis inhibition
- stability of treated neutrophils under ambient storage (neutrophils [1]; ambient storage conditions): 72 to 96 h
- migratory response to fMLP (neutrophils [2]; after 72 h ambient storage, vs freshly isolated neutrophils): comparable to that of the freshly isolated neutrophils; also recorded: nearly indistinguishable from the migratory response of the freshly isolated neutrophils
- migratory speed toward fMLP gradient (neutrophils [2]; after ambient storage, vs fresh neutrophils): identical to the fresh neutrophils; also recorded: maintained comparable speed to freshly isolated neutrophils

SMILES: CCCCS(=O)(=O)N[C@@H](Cc1ccc(OCCCCC2CCNCC2)cc1)C(=O)O [Tirofiban]
- platelet activation (PAC-1, CD62/p-selectin) of cold treated platelets (platelets): minimally activated

SMILES: CCCCCCCCCCCCCC(=O)O[C@@H]1[C@@H](C)[C@@]2(O)[C@@H](C=C(CO)C[C@]3(O)C(=O)C(C)=C[C@@H]23)[C@@H]2C(C)(C)[C@]12OC(C)=O [phorbol myristate acetate]
- neutrophil elastase level (neutrophil elastase): 81.4±64.4 mU/mL
